The record followed here is patent publication US20250059131A1, “FLUORINATED CATIONIC LIPIDS FOR USE IN LIPID NANOPARTICLES” (Acuitas Therapeutics, Inc., priority 2021, published 2025).

Series [1] can be described thus: Determination of pKa of formulated lipids (TNS fluorescence assay in lipid nanoparticles). It counts as physicochemical. The conditions noted are these: cationic lipid formulated in LNP (cationic lipid/DSPC/cholesterol/PEG-lipid 47.5/10/40.7/1.8 mol %), pH of half-maximal fluorescence. As to the method:
As described elsewhere, the pKa of formulated cationic lipids is correlated with the effectiveness of LNPs for delivery of nucleic acids (see Jayaraman et al, Angewandte Chemie, International Edition (2012), 51(34), 8529-8533; Semple et al, Nature Biotechnology 28, 172-176 (2010)). The preferred range of pKa is ˜5 to ˜7. The pKa of each cationic lipid was determined in lipid nanoparticles using an assay based on fluorescence of 2-(p-toluidino)-6-napthalene sulfonic acid (TNS). Lipid nanoparticles comprising cationic lipid/DSPC/cholesterol/PEG-lipid (47.5/10/40.7/1.8 mol %) in PBS at a concentration of 0.4 mM total lipid were prepared using the in-line process as described in Example 1. TNS was prepared as a […] stock solution in distilled water. Vesicles were diluted to 24 μM lipid in 2 mL of buffered solutions containing, 10 mM HEPES, 10 mM MES, 10 mM ammonium acetate, 130 mM NaCl, where the pH ranged from 2.5 to 11. An aliquot of the TNS solution was added to give a final concentration of 1 μM and following vortex mixing fluorescence intensity was measured at room temperature in a SLM Aminco Series 2 Luminescence Spectrophotometer using excitation and emission wavelengths of 321 nm and 445 nm. A sigmoidal best fit analysis was applied to the fluorescence data and the pKa was measured as the pH giving rise to half-maximal fluorescence intensity.

The test system of series [2] is luciferase expression in the liver. Kind of series: Luciferase mRNA in vivo evaluation using lipid nanoparticle compositions. The following applies: tail vein injection, 4 hours after administration, LNP formulation; for Liver Luc @ 0.5 mg/kg (ng luc/g): 0.5 mg mRNA/kg. On the set-up: species or system mice. On the procedure:
Lipid nanoparticles were prepared and tested according to the general procedures described in PCT Pub. Nos. WO 2015/199952 and WO 2017/004143, the full disclosures of which are incorporated herein by reference. Briefly, cationic lipid, DSPC, cholesterol and PEG-lipid were solubilized in ethanol at a molar ratio of about 50:10:38.5:1.5 or about 47.5:10:40.7:1.8. Lipid nanoparticles (LNP) were prepared at a total lipid to mRNA weight ratio of approximately 10:1 to 40:1. The mRNA is diluted to 0.2 mg/mL in 10 to 50 mM citrate or acetate buffer, pH 4. Syringe pumps were used to mix the ethanolic lipid solution with the mRNA aqueous solution at a ratio of about 1:5 to 1:3 (vol/vol) with total flow rates above 15 mL/min. The ethanol was then removed and the external buffer replaced with PBS by dialysis. Finally, the lipid nanoparticles were filtered through a 0.2 µm pore sterile filter. Lipid nanoparticle particle size was approximately 55-95 nm diameter, and in some instances approximately 70-90 nm diameter as determined by quasi-elastic light scattering using a Malvern Zetasizer Nano ZS (Malvern, UK).
Studies were performed in 6-8 week old female C57BL/6 mice (Charles River) or 8-10 week old CD-1 (Harlan) mice (Charles River) according to guidelines established by an institutional animal care committee (ACC) and the Canadian Council on Animal Care (CCAC). Varying doses of mRNA-lipid nanoparticle were systemically administered by tail vein injection and animals euthanized at a specific time point (e.g., 4 hours) post-administration. Liver and spleen were collected in pre-weighed tubes, weights determined, immediately snap frozen in liquid nitrogen and stored at −80° C. until processing for analysis.
For liver, approximately 50 mg was dissected for analyses in a 2 mL FastPrep tubes (MP Biomedicals, Solon OH). […] ceramic sphere (MP Biomedicals) is added to each tube and 500 μL of Glo Lysis Buffer—GLB (Promega, Madison WI) equilibrated to room temperature is added to liver tissue. Liver tissues were homogenized with the FastPrep24 instrument (MP Biomedicals) at 2×6.0 m/s for 15 seconds. Homogenate was incubated at room temperature for 5 minutes prior to a 1:4 dilution in GLB and assessed using SteadyGlo Luciferase assay system (Promega). Specifically, 50 μL of diluted tissue homogenate was reacted with 50 μL of SteadyGlo substrate, shaken for 10 seconds followed by 5 minute incubation and then quantitated using a CentroXS^3 LB 960 luminometer (Berthold Technologies, Germany). The amount of protein assayed was determined by using the BCA protein assay kit (Pierce, Rockford IL). Relative luminescence units (RLU) were then normalized to total μg protein assayed. To convert RLU to ng luciferase a standard curve was generated with QuantiLum Recombinant Luciferase (Promega).
The FLuc mRNA (L-6107 or L-7202) from Trilink Biotechnologies will express a luciferase protein, originally isolated from the firefly, photinus pyralis. FLuc is commonly used in mammalian cell culture to measure both gene expression and cell viability. It emits bioluminescence in the presence of the substrate, luciferin. This capped and poly-adenylated mRNA was fully substituted with respect to uridine and/or cytidine nucleosides.
(§1) Representative compounds of the disclosure shown in Table 2 were formulated using the following molar ratio: 50% cationic lipid/10% distearoylphosphatidylcholine (DSPC)/38.5% Cholesterol/1.5% PEG lipid 2-[2-(ω-methoxy(polyethyleneglycol2000)ethoxy]-N,N-ditetradecylacetamide) or 47.5% cationic lipid/10% DSPC/40.7% Cholesterol/1.8% PEG lipid. Relative activity was determined by measuring luciferase expression in the liver 4 hours following administration via tail vein injection as described in Example 1 or by measuring the amount of human IgG in mouse serum as described in example 2. […]

The next series has as its system human IgG in mouse serum. Kind of series: Immunoglobulin G (IgG) mRNA in vivo evaluation using lipid nanoparticle compositions. Set-up: species or system mice. The following applies: tail vein injection, 24 hours after administration, LNP formulation; for Serum IgG @ 0.3 mg/kg: 0.3 mg mRNA/kg; for Serum IgG @ 1.0 mg/kg: 1.0 mg mRNA/kg. On the procedure:
A lipid of structure (I), DSPC, cholesterol and PEG-lipid are solubilized in ethanol at a molar ratio of 50:10:38.5:1.5 or 47.5:10:40.7:1.8. Lipid nanoparticles (LNP) are prepared at a total lipid to mRNA weight ratio of approximately 10:1 to 40:1. Briefly, the mRNA is diluted to 0.2 mg/mL in 10 to 50 mM citrate buffer, pH 4 or 10 to 25 mM acetate buffer, pH 4. Syringe pumps are used to mix the ethanolic lipid solution with the mRNA aqueous solution at a ratio of about 1:5 to 1:3 (vol/vol) with total flow rates above 15 mL/min. The ethanol is then removed and the external buffer replaced with PBS by dialysis. Finally, the lipid nanoparticles are filtered through a 0.2 µm pore sterile filter.
Studies are performed in 6-8 week old CD-1/ICR mice (Envigo) according to guidelines established by an institutional animal care committee (ACC) and the Canadian Council on Animal Care (CCAC). Varying doses of mRNA-lipid nanoparticle are systemically administered by tail vein injection and animals euthanized at a specific time point (e.g., 24 hours) post-administration. The whole blood is collected, and the serum subsequentially separated by centrifuging the tubes of the whole blood at 2000× g for 10 minutes at 4° C. and stored at −80° C. until use for analysis.
For immunoglobulin G (IgG) ELISA (Life Diagnostics Human IgG ELISA kit), the serum samples are diluted at 100 to 15000 folds with 1× diluent solution. 100 μL of diluted serum is dispensed into anti-human IgG coated 96-well plate in duplicate alongside human IgG standards and incubated in a plate shaker at 150 rpm at 25° C. for 45 minutes. The wells are washed 5 times with 1× wash solution using a plate washer (400 μL/well). […] The absorbance is read at 450 nm (A450) with a microplate reader. The amount of human IgG in mouse serum is determined by plotting A450 values for the assay standard against human IgG concentration.
as §1, with “2. The activity was compared at a dose of 1.0 or 0.5 or 0.3 mg mRNA/kg and expressed as ng luciferase/g liver measured 4 hours after administration, as described in Example 1 or as μg IgG/mL serum measured 24 hours after administration, as described in Example 2.” for “2.”

Usually pKa stands for the negative logarithm of the acid dissociation constant. Read a high pKa as a group that holds its proton tightly.

SMILES strings stand for the structures. Marks after values point to notes of the source that are not given here.

Take `CCCCCCCCCC(OC(=O)CCCCCN(CCCCCO)CCCCCC(=O)OC(CCCCCCCCC)C(F)(F)C(F)(F)F)C(F)(F)C(F)(F)F` (stereo not drawn) [Compound I-4, BIS(1,1,1,2,2-PENTAFLUORODODECAN-3-YL) 6,6′-((5-HYDROXYPENTYL)AZANEDIYL)DIHEXANOATE]: the pKa in series [1] was determined as 5.88. Further, the “Liver Luc, determined at 0.3 mg/kg (ng luc/g)” value in series [2] (0.3 mg mRNA/kg) is 1336 ± 329 ng luc/g. Besides, the “Liver Luc, determined at 1.0 mg/kg (ng luc/g)” value in series [2] (1.0 mg mRNA/kg) is on record as 14888 + 2009** ng luc/g.
In series [1], `CCCCCCCCCC(OC(=O)CCCCCN(CCCCO)CCCCCC(=O)OC(CCCCCCCCC)C(F)(F)C(F)(F)F)C(F)(F)C(F)(F)F` (stereo not drawn) [Compound I-3, BIS(1,1,1,2,2-PENTAFLUORODODECAN-3-YL) 6,6′-((4-HYDROXYBUTYL)AZANEDIYL)DIHEXANOATE] returned a pKa of 6.03. In addition, in series [2], the “Liver Luc @ 0.5 mg/kg (ng luc/g)” value is reported as 3633 ± 1416 ng luc/g.
For `CCCCCCCCCC(OC(=O)CCCCCCCN(CCO)CCCCCCCC(=O)OC(CCCCCCCCC)C(F)(F)C(F)(F)F)C(F)(F)C(F)(F)F` (stereo not drawn) [Compound I-1, BIS(1,1,1,2,2-PENTAFLUORODODECAN-3-YL) 8,8′-((2-HYDROXYETHYL)AZANEDIYL)DIOCTANOATE] the same measures were 5.88 and 1233 ± 305 ng luc/g.
In the case of `CCCCCCCCCCN(CCCCCCCCCC)C(=O)C(F)CCCCCCN(CCCCCO)CCCCCCC(F)C(=O)N(CCCCCCCCCC)CCCCCCCCCC` (stereo not drawn) [Compound I-9, 8,8′-((5-HYDROXYPENTYL)AZANEDIYL)BIS(N,N-DIDECYL-2-FLUOROOCTANAMIDE)], in the series with human IgG in mouse serum, the “Serum IgG @ 0.3 mg/kg” value was found to be 24.36 ± 4.39 µg/mL and the “Serum IgG @ 1.0 mg/kg” value amounted to 239.26 ± 39.80 µg/mL.
Consider `CCCCCCCCCC(OC(=O)CCCCCN(CCCO)CCCCCC(=O)OC(CCCCCCCCC)C(F)(F)C(F)(F)F)C(F)(F)C(F)(F)F` (stereo not drawn) [Compound I-2, BIS(1,1,1,2,2-PENTAFLUORODODECAN-3-YL) 6,6′-((3-HYDROXYPROPYL)AZANEDIYL)DIHEXANOATE], for which the pKa in series [1] came out at 5.92. Besides, in series [2], the “Liver Luc @ 0.5 mg/kg (ng luc/g)” value was 511 ± 79 ng luc/g.
For `CCCCCCCCCC(CC)OC(=O)CCCCCN(CCCCO)CCCCCC(=O)OC(CC)CCCCCCCCC` (stereo not drawn) [I-3 analogue, reference compound] the same measures were 6.62 and 462 ± 425 ng luc/g.
Regarding `CCCCCCCCCCN(CCCCCCCCCC)C(=O)C(F)CCCCCCN(C)CCCCCCC(F)C(=O)N(CCCCCCCCCC)CCCCCCCCCC` (stereo not drawn) [Compound I-10, 8,8′-(METHYLAZANEDIYL)BIS(N,N-DIDECYL-2-FLUOROOCTANAMIDE)], in the series with human IgG in mouse serum, the “Serum IgG @ 0.3 mg/kg” value amounted to 12.94 ± 2.03 µg/mL and the “Serum IgG @ 1.0 mg/kg” value worked out at 142.26 ± 26.31 µg/mL.
